Consider 51 molecules from patent US8809341B2, “2,4-pyrimidinediamine compounds and uses as anti-proliferative agents” (Rigel Pharmaceuticals, Inc., priority 2003, dated 2014).

As a reminder, the IC50 is the concentration that inhibits the measured activity by half.

For test [1], the system named is H1299 cells. The experiment in a line: in vitro antiproliferation assay, H1299 (lung). In kind it is cell-based. The procedure:
The IC50 values of various compounds against a various different tumor cell lines were determined using standard in vitro antiproliferation assays. The tumor cell lines tested were as follows: A549 (lung); H1299 (lung), ACHN (kidney/p53 wt), CAKI (renal cell carcinoma), NCI-H460 (lung); HCT116 (colon/p53w0; HELA (cervix/p53 wt), HUH7 (liver/p53 wt), HUVEC (primary endothelial), LNCAP (prostate), HT-29 (colon); MCF-7 (breast); MCF-7 (breast/ER positive), MDA MB435S (breast); MDA MB231 (breast/ER negative), DU145 (prostate); BxPC-3 (pancreatic); SKOV-3 (ovarian); HepG2 (hepatic), NDHF primary normal human dermal fibroblast), SKMEL28 (breast/p53mut), SKMEL5 (breast/p53 wt), U20S (bone) and PC3 (prostate). […] A blank indicates the specified compound was not tested against the specified cell line.

In test [2] the test system is A549 cells. The experiment in a line: in vitro antiproliferation assay, A549 (lung). In kind it is cell-based. Summed up:
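IC50 values came from standard antiproliferation testing in cultured tumour cells; the A549 and H1299 lines are of lung origin.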

[3] abbreviates: H1299 (lung) cells, antiproliferation.
The mark [4] stands for this setting: A549 (lung) cells, antiproliferation.
The mark [5] stands for this setting: Table 5, in vitro antiproliferation, H1299 (lung) cells.
Where [6] appears, read: Table 5, in vitro antiproliferation, A549 (lung) cells.
The mark [7] stands for this setting: H1299 (lung) cells, in vitro antiproliferation.
Setting [8] is: A549 (lung) cells, in vitro antiproliferation.
Setting [9] is: Table 7, in vitro antiproliferation, H1299 (lung) cells.
Setting [10] is: Table 7, in vitro antiproliferation, A549 (lung) cells.
The mark [11] stands for this setting: in vitro antiproliferation, H1299 (lung) cells, Table 4, compounds with no designated stereochemistry tested as racemate.
Where [12] appears, read: in vitro antiproliferation, A549 (lung) cells, Table 4, compounds with no designated stereochemistry tested as racemate.
Setting [13] is: Homo sapiens, NCI-H1299, IC50 class against H1299 (lung) tumor cells.
Where [14] appears, read: Homo sapiens, IC50 class against A549 (lung) tumor cells.
[15] abbreviates: IC50 class against H1299 (lung) tumor cells.
Where [16] appears, read: IC50 class against A549 (lung) tumor cells.

On to `CNC(=O)COc1cccc(Nc2ncc(F)c(Nc3ccc(N4CCN(C(=O)OC)CC4)cc3)n2)c1` [compound 993], for which the IC50 in test [1] (setting [3]) and in test [2] (setting [4]) was ≤ 20 µM in each case.

For the molecule `Cc1cc(Nc2ncc(F)c(Nc3ccc4c(c3)OC(F)(F)O4)n2)cc(C)c1Cl` [compound 565], the IC50 in test [1] (setting [5]) and in test [2] (setting [6]) was > 20 µM each time.

For the molecule `COc1cc(OC)cc(N(C)c2nc(Nc3ccc(OC)c(Cl)c3)ncc2F)c1` [compound 853], the IC50 in test [1] (setting [7]) and in test [2] (setting [8]) was > 20 µM throughout.

On to `NCc1ccc(Nc2ncc(F)c(Nc3ccc(CN)cc3)n2)cc1` [compound 1013], for which the IC50 in test [1] (setting [3]) and in test [2] (setting [4]) was ≤ 20 µM in each case.

As for `COc1cc(Nc2nc(Nc3ccc(C(N)=O)c(Cl)c3)ncc2F)ccc1Cl` [compound 1034], the IC50 in test [1] (setting [3]) was ≤ 20 µM; in test [2] (setting [4]), > 20 µM.

For `Fc1cnc(Nc2cc(-c3ncco3)cc(C(F)(F)F)c2)nc1Nc1ccc2c(c1)OCCO2` [compound 559], the IC50 in test [1] (setting [5]) and in test [2] (setting [6]) was ≤ 20 µM in each case.

Take `CNC(=O)c1cc2cccc(Nc3ncc(F)c(N(C)c4cc(OC)cc(OC)c4)n3)c2[nH]1` [compound 663]: the IC50 in test [1] (setting [9]) and in test [2] (setting [10]) was ≤ 20 µM in each case.

In the case of `O=C1Nc2cc(Nc3nc(Nc4cccc(-c5cnco5)c4)ncc3F)ccc2OC1CCO` (racemic) [compound 238], the IC50 in test [1] (setting [11]) and in test [2] (setting [12]) was ≤ 20 µM throughout.

With `CCOc1ccc(Nc2ncc(F)c(Nc3ccc(OCC)cc3)n2)cc1` [compound 704], the IC50 in test [1] (setting [7]) and in test [2] (setting [8]) was ≤ 20 µM each time.

As for `Cc1cc(C)cc(Nc2ncc(F)c(Nc3cccc(Nc4ncc[nH]4)c3)n2)c1` [compound 1052], the IC50 in test [1] (setting [13]) and in test [2] (setting [14]) was ≤ 20 µM each time.

Turning to `Cc1cc(Nc2ncc(F)c(NC(C)C)n2)ccc1N1CCN(C)CC1` [compound 217], the IC50 in test [1] (setting [15]) and in test [2] (setting [16]) was ≤ 20 µM in each case.

`CC1(C)Oc2ccc(Nc3nc(Nc4ccc5c(cnn5C(C)(C)CC5CCC5)c4)ncc3F)cc2NC1=O` [compound 1100]: the IC50 in test [1] (H1299 (lung) cells) and in test [2] (A549 (lung) cells) was ≤ 20 µM each time.

Regarding `CC1(C)Oc2ccc(Nc3nc(Nc4ccc5cnn(C(C)(C)CC6CC6)c5c4)ncc3F)cc2NC1=O` [compound 1112], the IC50 in test [1] (H1299 (lung) cells) and in test [2] (A549 (lung) cells) was ≤ 20 µM in each case.

`CC(C)Nc1nc(Nc2cccc(N3CCN(C)CC3)c2)ncc1F` [compound 219]: the half-maximal inhibitory concentration (IC50) in test [1] (setting [15]) and in test [2] (setting [16]) was ≤ 20 µM throughout.

Consider `Cc1cc(C)cc(Nc2ncc(F)c(N(C)c3ccc4c(c3)OCCO4)n2)c1` [compound 547], for which the IC50 in test [1] (setting [5]) and in test [2] (setting [6]) was ≤ 20 µM each time.

Turning to `NC(=O)COc1ccc(Nc2nc(Nc3cccc(O)c3)ncc2F)cc1` [compound 974], the IC50 in test [1] (setting [3]) and in test [2] (setting [4]) was ≤ 20 µM throughout.

Take `Fc1cnc(Nc2ccc3c(cnn3CC3CCCCC3)c2)nc1Nc1ccc(Cl)c(Cl)c1` [compound 1091]: the IC50 in test [1] (H1299 (lung) cells) and in test [2] (A549 (lung) cells) was > 20 µM each time.

On to `CCN(CC)CCNC(=O)c1ccc(Nc2ncc(F)c(Nc3ccc(OC)c(Cl)c3)n2)cc1` [compound 1021], for which the IC50 in test [1] (setting [3]) and in test [2] (setting [4]) was ≤ 20 µM each time.

For `COc1cc(Nc2ncc(F)c(Nc3cc(C)cc(C)c3)n2)cc(OC)c1` [compound 814], the IC50 in test [1] (setting [7]) and in test [2] (setting [8]) was ≤ 20 µM throughout.

On to `COc1ccc(Nc2ncc(F)c(Nc3ccc4c(c3)NC(=O)C(C)(C)S4)n2)cc1F` [compound 289], for which the IC50 in test [1] (setting [11]) and in test [2] (setting [12]) was ≤ 20 µM in each case.

In the case of `COc1ccc(Nc2ncc(F)c(Nc3ccc4c(n3)NCCO4)n2)cc1Cl` [compound 612], the IC50 in test [1] (setting [15]) and in test [2] (setting [16]) was > 20 µM each time.

For `CC(C)(CC1CCC1)n1ncc2cc(Nc3ncc(F)c(Nc4ccc(Cl)c(Cl)c4)n3)ccc21` [compound 1099], the IC50 in test [1] (H1299 (lung) cells) and in test [2] (A549 (lung) cells) was ≤ 20 µM each time.

As for `COc1cc(Nc2ncc(F)c(Nc3ccc4c(c3)OCCO4)n2)cc(C(F)(F)F)c1` [compound 531], the results for the IC50 in test [1] (setting [5]) and in test [2] (setting [6]) were ≤ 20 µM and > 20 µM, respectively.

`Fc1cnc(Nc2cccc(-c3ncco3)c2)nc1Nc1cccc(-c2ncco2)c1` [compound 995]: the IC50 in test [1] (setting [3]) and in test [2] (setting [4]) was ≤ 20 µM in each case.

For `Fc1cnc(Nc2cccc(Cl)c2)nc1Nc1ccc2c(c1)OC(F)(F)O2` [compound 513], the IC50 in test [1] (setting [5]) and in test [2] (setting [6]) was ≤ 20 µM throughout.

Turning to `NC(=O)c1ccc(Nc2ncc(F)c(NC3CCCC3)n2)cc1` [compound 175], the figures for the IC50 in test [1] (setting [15]) and in test [2] (setting [16]) were > 20 µM and ≤ 20 µM, respectively.

For `CC(C)Nc1nc(Nc2ccc(N3CCN(C)CC3)cc2)ncc1F` [compound 215], the IC50 in test [1] (setting [15]) and in test [2] (setting [16]) was ≤ 20 µM throughout.

As to `CNC(=O)c1cc2cccc(Nc3ncc(F)c(Nc4ccc5c(c4)OC(F)(F)C(F)(F)O5)n3)c2[nH]1` [compound 653], the IC50 in test [1] (setting [9]) and in test [2] (setting [10]) was ≤ 20 µM throughout.

Turning to `Fc1cnc(Nc2ccc(N3CCOCC3)cc2)nc1NC1CCC1` [compound 132], the IC50 in test [1] (setting [15]) and in test [2] (setting [16]) was ≤ 20 µM each time.

In the case of `COc1ccc(Nc2ncc(F)c(Nc3ccc4c(c3)NC(=O)C(C)(C)S4(=O)=O)n2)cc1F` [compound 287], the IC50 in test [1] (setting [11]) and in test [2] (setting [12]) was ≤ 20 µM each time.

As for `Cc1cc(C)cc(Nc2ncc(F)c(Nc3ccc4c(c3)OCO4)n2)c1` [compound 544], the IC50 in test [1] (setting [5]) and in test [2] (setting [6]) was > 20 µM throughout.

As to `COc1cc(Nc2nc(Nc3cc(C)c(O)c(Cl)c3)ncc2F)cc(C(F)(F)F)c1` [compound 822], the IC50 in test [1] (setting [7]) and in test [2] (setting [8]) was ≤ 20 µM each time.

Turning to `COc1cc(N(C)c2nc(Nc3cc(C)cc(C)c3)ncc2F)ccc1Cl` [compound 909], the IC50 in test [1] (setting [3]) and in test [2] (setting [4]) was ≤ 20 µM in each case.

For the molecule `CNC(=O)COc1ccc(Nc2ncc(F)c(Nc3ccc(OC)c(Cl)c3)n2)cc1` [compound 1025], the IC50 in test [1] (setting [3]) is ≤ 20 µM; in test [2] (setting [4]), > 20 µM.

Turning to `CC(=O)N1CCN(c2cccc(Nc3ncc(F)c(Nc4cc(C(C)(C)C)[nH]n4)n3)c2)CC1` [compound 200], the IC50 in test [1] (setting [13]) and in test [2] (setting [14]) was ≤ 20 µM each time.

`CC1(C)COc2ccc(Nc3nc(Nc4cccc(-c5cnco5)c4)ncc3F)cc2N1` [compound 592]: the IC50 in test [1] (setting [15]) and in test [2] (setting [16]) was > 20 µM in each case.

`O=C1Nc2cc(Nc3nc(Nc4cccc(-c5ncco5)c4)ncc3F)ccc2OC1CCO` (racemic) [compound 237]: the IC50 in test [1] (setting [11]) and in test [2] (setting [12]) was ≤ 20 µM in each case.

For `Cc1cc(Nc2ncc(F)c(NC3CCCCC3)n2)cnc1N1CCN(C)CC1` [compound 173], the IC50 in test [1] (setting [15]) and in test [2] (setting [16]) was ≤ 20 µM in each case.

`COc1cc(Nc2nc(Nc3cc(C)cc(C)c3)ncc2F)cc(C(F)(F)F)c1` [compound 817]: the IC50 in test [1] (setting [7]) and in test [2] (setting [8]) was ≤ 20 µM throughout.

Turning to `O=C(COc1cccc(Nc2ncc(F)c(Nc3cc(Cl)c(O)c(Cl)c3)n2)c1)N1CCNCC1` [compound 1001], the IC50 in test [1] (setting [3]) and in test [2] (setting [4]) was > 20 µM each time.

In the case of `CCOC(=O)N1CCN(c2cccc(Nc3ncc(F)c(Nc4ccc5c(n4)NCCO5)n3)c2)CC1` [compound 607], the IC50 in test [1] (setting [15]) and in test [2] (setting [16]) was ≤ 20 µM throughout.

On to `CN1CCN(c2ccc(Nc3ncc(F)c(NC4CC(C)(C)N(C)C(C)(C)C4)n3)cc2)CC1` [compound 178], for which the IC50 in test [1] (setting [15]) and in test [2] (setting [16]) was ≤ 20 µM each time.

On to `COc1cccc(Nc2ncc(F)c(Nc3ccc4c(c3)NC(=O)CO4)n2)c1C` [compound 1062], for which the IC50 in test [1] (H1299 (lung) cells) and in test [2] (A549 (lung) cells) was ≤ 20 µM each time.

On to `CCCCn1ncc2cc(Nc3ncc(F)c(Nc4ccc(F)c(OC)c4)n3)ccc21` [compound 1085], for which the IC50 in test [1] (H1299 (lung) cells) and in test [2] (A549 (lung) cells) was ≤ 20 µM throughout.

Take `COc1cc(Cl)cc(Nc2ncc(F)c(Nc3ccc4c(c3)OCCO4)n2)c1` [compound 539]: the IC50 in test [1] (setting [5]) and in test [2] (setting [6]) was ≤ 20 µM each time.

On to `Fc1cnc(Nc2cc(Cl)cc(Cl)c2)nc1Nc1ccc2c(c1)OCO2` [compound 543], for which the IC50 in test [1] (setting [5]) and in test [2] (setting [6]) was ≤ 20 µM throughout.

For `O=C(Nc1ccc(Nc2ncc(F)c(NC3CCC3)n2)cc1)c1ccccc1` [compound 131], the IC50 in test [1] (setting [15]) and in test [2] (setting [16]) was ≤ 20 µM each time.

In the case of `CCOC(=O)COc1cccc(Nc2ncc(F)c(Nc3cc(Cl)c(O)c(Cl)c3)n2)c1` [compound 999], the IC50 in test [1] (setting [3]) and in test [2] (setting [4]) was > 20 µM throughout.

On to `CCOC(=O)N1CCC(Nc2nc(Nc3ccc(N4CCN(C)CC4)cc3)ncc2F)CC1` [compound 185], for which the IC50 in test [1] (setting [15]) and in test [2] (setting [16]) was ≤ 20 µM throughout.

As to `COc1cc(Nc2nc(Nc3cccc(-c4ncco4)c3)ncc2F)cc(OC)c1OC` [compound 932], the IC50 in test [1] (setting [3]) and in test [2] (setting [4]) was ≤ 20 µM each time.

With `COc1ccc(Nc2nc(Nc3ccc(C(N)=O)c(Cl)c3)ncc2F)cc1Cl` [compound 1033], the IC50 in test [1] (setting [3]) and in test [2] (setting [4]) was ≤ 20 µM each time.
